{"source": "patent US20190194621A1", "about": "“MEDIUM FOR CULTURING STEM CELLS, METHOD FOR CULTURING STEM CELLS, GROWTH PROMOTER FOR STEM CELLS, AND CELL COMPOSITION AND METHOD FOR PRODUCING SAME” (KYOWA HAKKO BIO CO., LTD., priority 2016, published 2019)", "tested_on": "human iPS cell 253G1 cell line", "experiment": "Culture of human iPS cells in growth-factor-free medium with added compound; count of Hoechst-stained nuclei and OCT3/4 positive cells", "assay_type": "cell-based", "conditions": "for number of nuclei counted, increase as compared with the medium to which no growth factor was added (−GF) / expression ratio of OCT3/4 (proportion of Oct3/4 positive cells among Hoechst 33342 stained cells): 5 μM HA100, 0.05 μM DZNep or 0.01 nM TTNPB in growth-factor-free medium; for number of nuclei counted, increase as compared with the medium to which no growth factor was added (−GF): 3 days, 37° C., 10% CO2, average of four experiments; for expression ratio of OCT3/4 (proportion of Oct3/4 positive cells among Hoechst 33342 stained cells): +GF = 2 ng/mL activin A and 5 ng/mL bFGF", "experimental": "A medium obtained by adding and dissolving separate components shown in the following Table 1 sterilized through a 0.22 μm filter, 10 μg/mL insulin (manufactured by Sigma-Aldrich Co. LLC.), 5 μg/mL apotransferrin (manufactured by Sigma-Aldrich Co. LLC.), and oleic acid-conjugated recombinant human serum albumin (manufactured by Sigma-Aldrich Co. LLC.) in a known medium (mESF Basal Medium, manufactured by Wako Pure Chemical Industries, Ltd.) was used as a medium in a negative control group. A medium obtained by adding 5 μM HA100 that is a ROCK inhibitor and a PKC inhibitor, 0.05 μM DZNep that is a histone methyltransferase inhibitor, or 0.01 nM TTNPB that is a retinoic acid receptor agonist to the medium of the negative control group was used as a medium in an evaluation target group. Further, a medium obtained by adding 2 ng/mL activin A (manufactured by Wako Pure Chemical Industries, Ltd.) and 5 ng/mL bFGF (manufactured by Wako Pure Chemical Industries, Ltd.) to the medium of the negative control group was used as a medium of a positive control group. The prepared medium in the negative control group, media in the evaluation target group (the medium obtained by adding HA100 to the medium in the negative control group, the medium obtained by adding DZNep to the medium in the negative control group, and the medium obtained by adding TTNPB to the medium in the negative control group), and medium in the positive control group were added to a 24-well plate for cell culture (manufactured by Sumitomo Bakelite Company Limited) at 1 mL/well, and a human iPS cell 253G1 cell line (established by Center for iPS Cell Research and Application, Kyoto University and obtained from iPS Academia Japan, Inc.) was cultured in the presence of 10% CO2 at 37° C. for 3 days. With respect to the cultured cells, the nuclei were stained with Hoechst 33342 (manufactured by Dojindo Laboratories). Further, OCT3/4 protein in the cells was stained with OCT-3/4 antibody C-10 (manufactured by Santa Cruz Biotechnology) and […] anti-mouse IgG (H+L) Secondary Antibod Alexa Fluor 488 conjugate (manufactured by Invitorogen Co.). Thereafter, the number of stained nuclei and the number of Oct3/4 positive cells were counted using In cell analyzer (manufactured by GE Healthcare, Inc.).", "data": [{"compound": "C/C(=C\\c1ccc(C(=O)O)cc1)c1ccc2c(c1)C(C)(C)CCC2(C)C", "note": "[TTNPB, 4-[(E)-2-(5,6,7,8-tetrahydro-5,5,8,8-tetramethyl-2-naphthalenyl)-1-propenyl]benzoic acid]", "values": [{"measurement": "number of nuclei counted, increase as compared with the medium to which no growth factor was added (−GF)", "result": 1.24, "unit": "times"}, {"measurement": "expression ratio of OCT3/4 (proportion of Oct3/4 positive cells among Hoechst 33342 stained cells)", "setting": "3 days culture", "result": 84.2, "unit": "%"}]}, {"compound": "Nc1nccc2c1ncn2C1C=C(CO)C(O)C1O", "note": "(stereo not shown) [DZNep, 3-deazaneplanocin]", "values": [{"measurement": "number of nuclei counted, increase as compared with the medium to which no growth factor was added (−GF)", "result": 1.35, "unit": "times"}, {"measurement": "expression ratio of OCT3/4 (proportion of Oct3/4 positive cells among Hoechst 33342 stained cells)", "setting": "3 days culture", "result": 95.6, "unit": "%"}]}, {"compound": "Cl.O=S(=O)(c1cccc2cnccc12)N1CCNCC1", "note": "[HA100, 1-(5-isoquinolinesulfonyl)piperazine hydrochloride]", "values": [{"measurement": "number of nuclei counted, increase as compared with the medium to which no growth factor was added (−GF)", "result": 1.83, "unit": "times"}, {"measurement": "expression ratio of OCT3/4 (proportion of Oct3/4 positive cells among Hoechst 33342 stained cells)", "setting": "3 days culture", "result": 89.3, "unit": "%"}, {"measurement": "growth compared with the medium to which a growth factor was added (+GF)", "setting": "5 μM HA100 in growth-factor-free medium, 3 days culture", "result": "growth comparable to that in the case of using the medium to which a growth factor was added"}]}]}
